Experimental data from US20230075822A1, “USE OF CASTALAGIN OR ANALOGS THEREOF FOR ANTI-CANCER EFFICACY AND TO INCREASE THE RESPONSE TO IMMUNE CHECKPOINT INHIBITORS” (THE ROYAL INSTITUTION FOR THE ADVANCEMENT OF …, priority 2020, published 2023).

System: CD8^+ T cells
Experiment: Flow cytometry immune profiling of tumor and spleen, E0771 tumor model
Assay type: in vivo, C57BL/6 mice
Details: αPD-1 with or without treatment
Description: FIGS. 7A-C are graphs showing the results of immune cell profiling by flow cytometry in the murine MCA-205 (FIGS. 7A-B) or E0771 (FIG. 7C) tumor model treated with anti-PD-1 and/or CC. The tumors and the spleens were harvested 9 days or 19 days after the first injection of anti-PD-1 mAb into mice bearing MCA-205 or E0771 tumors, respectively. Excised tumors were cut into small pieces and digested in RPMI medium containing Liberase 25 μg/mL (Roche) and DNase1 at 150 Ul/mL (Roche) for 30 minutes at 37° C. and then crushed and filtered twice using 100 and 70 μm cell strainers (Becton & Dickinson). Spleens were crushed in RPMI medium and subsequently filtered through a 100 μm cell strainer. Two million tumor cells or splenocytes were pre-incubated with purified anti-mouse CD16/CD32 (clone 93; eBioscience) for 30 minutes at 4° C., before membrane staining (CD45, CD3, CD4, CD8, PD1, PDL1, ICOS, CXCR3, CCR9, CD45RB, CD62L, CD44). For intracellular staining, the Foxp3 staining kit (eBioscience) was used. Dead cells were excluded using the Live/Dead Fixable aqua blue dead cell stain kit (Life Technologies). […] FIG. 7C is a graph showing the activation of intratumoral CD8^+ T cells (as assessed by MFI of ICOS^+CD8^+ T cells by flow cytometry) in TILs in the E0771 tumor model post-treatment with CC +/-αPD-1. […]

O=C1OC[C@H]2OC(=O)c3cc(O)c(O)c(O)c3-c3c(O)c(O)c(O)c4c3C(=O)O[C@H]([C@H]3OC(=O)c5c-4c(O)c(O)c(O)c5[C@@H]3O)[C@@H]2OC(=O)c2cc(O)c(O)c(O)c2-c2c1cc(O)c(O)c2O [castalagin, Castalagin]
frequency of memory CD8^+ T cells (CD44^HighCD62L^−CD8^+) (splenocytes): increase in frequency of memory CD8^+ T cells | frequency of memory CD8^+ T cells (CD44^HighCD62L^−CD8^+) (tumor microenvironment): increase in frequency of memory CD8^+ T cells
